ChEMBL document CHEMBL1201862, “PubChem BioAssay data set” (2004)
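Tested at 5 concentrations; 48 h exposure; 96-well plates; endpoints linearly interpolated, else capped at highest concentration. Abbreviation: GI50, concentration required for 50% inhibition of growth.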 Calls of active or inactive are those of the source. No stated cut-off is given here; in the data, active = GI50 up to about 1.1 µM and inactive = higher.

Experiments:
Test in all cases: growth of human tumour cells (NCI), 48 h
A549 = system: A549
ACHN = system: ACHN
BT-549 = system: BT-549
CAKI-1 = system: CAKI-1
EKVX = system: EKVX
HCC 2998 = system: HCC 2998
Hs-578T = system: Hs-578T
KM12 = system: KM12
M14 = system: M14
MDA-MB-231 = system: MDA-MB-231
MOLT-4 = system: MOLT-4
NCI-H226 = system: NCI-H226
OVCAR-5 = system: OVCAR-5
OVCAR-8 = system: OVCAR-8
RXF 393 = system: RXF 393
SK-MEL-28 = system: SK-MEL-28
SK-MEL-2 = system: SK-MEL-2
SN12C = system: SN12C
SNB-75 = system: SNB-75
UO-31 = system: UO-31

Measured: GI50

CCOC(=O)CON=c1c2ccccc2ccc2ccccc12
inactive: A549 > 100 µM | ACHN > 100 µM | BT-549 > 100 µM | CAKI-1 > 100 µM | EKVX > 100 µM | HCC 2998 26.1 µM | Hs-578T > 100 µM | KM12 > 100 µM | M14 > 100 µM | MDA-MB-231 > 100 µM | MOLT-4 > 100 µM | NCI-H226 > 100 µM | OVCAR-5 > 100 µM | OVCAR-8 > 100 µM | RXF 393 > 100 µM | SK-MEL-28 > 100 µM | SK-MEL-2 > 100 µM | SN12C > 100 µM | SNB-75 > 100 µM | UO-31 > 100 µM

SCc1ccc(-c2ccc(CS)cc2)cc1
inactive: A549 20.5 µM | ACHN 18.7 µM | BT-549 2.42 µM | CAKI-1 4.42 µM | EKVX 26 µM | HCC 2998 15.6 µM | Hs-578T 3.98 µM | KM12 3.11 µM | M14 14.3 µM | MDA-MB-231 11.2 µM | MOLT-4 2.14 µM | NCI-H226 18.4 µM | OVCAR-5 12.3 µM | OVCAR-8 21.3 µM | RXF 393 16.8 µM | SK-MEL-28 9.55 µM | SK-MEL-2 19.7 µM | SN12C 26.3 µM | SNB-75 10.7 µM | UO-31 18.4 µM

CCOC(=O)CCC(NC(=O)c1ccc(OCc2nc3cc(C(F)(F)F)ccc3nc2-c2ccccc2)cc1)C(=O)OCC (centres undefined)
inactive: A549 > 100 µM | ACHN 94.2 µM | BT-549 56.6 µM | CAKI-1 74.8 µM | EKVX > 100 µM | HCC 2998 > 10 µM | Hs-578T 35.8 µM | KM12 29 µM | M14 81.7 µM | MDA-MB-231 > 100 µM | MOLT-4 40 µM | NCI-H226 13 µM | OVCAR-5 > 100 µM | OVCAR-8 > 100 µM | RXF 393 85.7 µM | SK-MEL-28 > 100 µM | SK-MEL-2 22 µM | SN12C > 100 µM | SNB-75 4.07 µM | UO-31 37.9 µM

CC12CCC3c4cc(Br)c(O)c(Br)c4CCC3C1CCC2O (centres undefined)
inactive: A549 19.5 µM | ACHN 22.5 µM | BT-549 16 µM | CAKI-1 15.6 µM | EKVX 15.2 µM | HCC 2998 12.7 µM | Hs-578T 17.9 µM | KM12 12.9 µM | M14 32.7 µM | MDA-MB-231 13.3 µM | MOLT-4 17.7 µM | NCI-H226 16.7 µM | OVCAR-5 25.7 µM | OVCAR-8 14 µM | RXF 393 12.7 µM | SK-MEL-28 17.9 µM | SK-MEL-2 19.1 µM | SN12C 19 µM | SNB-75 16.3 µM | UO-31 15.8 µM

CC1CN(CCO)CC(C)O1 (centres undefined)
inactive: A549 > 100 µM | ACHN > 100 µM | BT-549 > 100 µM | CAKI-1 > 100 µM | EKVX > 100 µM | HCC 2998 > 100 µM | Hs-578T > 100 µM | KM12 > 100 µM | M14 > 100 µM | MDA-MB-231 > 100 µM | MOLT-4 > 100 µM | NCI-H226 > 100 µM | OVCAR-5 > 100 µM | OVCAR-8 > 100 µM | RXF 393 > 100 µM | SK-MEL-28 > 100 µM | SK-MEL-2 > 100 µM | SN12C > 100 µM | SNB-75 > 100 µM | UO-31 > 100 µM

COc1cccc2c1OC1(C=C2)Oc2ccccc2C(=O)N1C (centres undefined)
inactive: A549 41.6 µM | ACHN 35.2 µM | BT-549 31.2 µM | CAKI-1 8.18 µM | EKVX 18.4 µM | HCC 2998 26.7 µM | Hs-578T 21.5 µM | KM12 19.1 µM | M14 40.8 µM | MDA-MB-231 27.2 µM | MOLT-4 15.7 µM | NCI-H226 20.9 µM | OVCAR-5 78.3 µM | OVCAR-8 4.68 µM | RXF 393 25.5 µM | SK-MEL-28 59 µM | SK-MEL-2 54.5 µM | SN12C 22.5 µM | SNB-75 16.3 µM | UO-31 19.8 µM

OCCOCn1cc(Cn2ncc3c(SCc4ccccc4)ncnc32)nn1
inactive: A549 40.3 µM | ACHN 99.3 µM | BT-549 26.9 µM | CAKI-1 48.4 µM | EKVX 38 µM | HCC 2998 51.1 µM | Hs-578T 39.8 µM | KM12 32.3 µM | M14 27.3 µM | MDA-MB-231 88.1 µM | MOLT-4 14.4 µM | NCI-H226 62.8 µM | OVCAR-5 79.3 µM | OVCAR-8 91.8 µM | RXF 393 31.6 µM | SK-MEL-28 > 100 µM | SK-MEL-2 37.2 µM | SN12C 64.9 µM | SNB-75 46 µM | UO-31 61.8 µM

O=S1(=O)CCN(Cc2ccccc2)/C1=N\S(=O)(=O)c1ccc(Cl)cc1
inactive: A549 65.3 µM | ACHN 18.8 µM | BT-549 17.2 µM | CAKI-1 19.1 µM | EKVX 15.1 µM | HCC 2998 19.3 µM | Hs-578T 26.2 µM | KM12 27.4 µM | M14 17.3 µM | MDA-MB-231 > 100 µM | MOLT-4 20.5 µM | NCI-H226 17.8 µM | OVCAR-5 18.1 µM | OVCAR-8 17 µM | RXF 393 19.5 µM | SK-MEL-28 18.3 µM | SK-MEL-2 23.4 µM | SN12C 19.2 µM | SNB-75 21.2 µM | UO-31 17.5 µM

COC(=O)C(=O)C(C(=O)C(=O)Nc1nnc(S)[nH]1)c1nc2ccc([N+](=O)[O-])cc2nc1O (centres undefined)
inactive: A549 > 100 µM | ACHN 86.9 µM | BT-549 > 100 µM | CAKI-1 > 100 µM | EKVX > 100 µM | HCC 2998 > 100 µM | Hs-578T > 100 µM | KM12 > 100 µM | M14 > 100 µM | MDA-MB-231 > 100 µM | NCI-H226 > 100 µM | OVCAR-5 > 100 µM | OVCAR-8 > 100 µM | RXF 393 > 100 µM | SK-MEL-28 > 100 µM | SK-MEL-2 > 100 µM | SN12C > 100 µM | SNB-75 > 100 µM | UO-31 82.8 µM

C[N+](C)([O-])CCCNc1ccnc2cccc([N+](=O)[O-])c12
inactive: A549 47.4 µM | ACHN 33.1 µM | BT-549 41.9 µM | CAKI-1 44.1 µM | EKVX > 100 µM | HCC 2998 27.3 µM | Hs-578T 21.1 µM | KM12 33 µM | M14 37.7 µM | MDA-MB-231 53.5 µM | MOLT-4 20.2 µM | NCI-H226 47.1 µM | OVCAR-5 > 100 µM | OVCAR-8 81.3 µM | RXF 393 18.7 µM | SK-MEL-28 72.6 µM | SK-MEL-2 19.8 µM | SN12C 47.1 µM | SNB-75 39.2 µM | UO-31 46.5 µM
